Reference: patent US5021549A, “Physiologically active substances, probestin and prostatin and production thereof” (priority 1987, dated 1991)

Key:
Aminopeptidase-A = Aminopeptidase-A (Homo sapiens, UniProt Q07075); assay: Inhibition of aminopeptidase-A
aminopeptidase M = target: T1, aminopeptidase M (Sus scrofa, UniProt P15145); assay: Inhibition of aminopeptidase M (L-leucine-β-naphthylamide substrate); type: biochemical; settings: read-out: Value of IC50 against Aminopeptidase M (converted)
T1 construct: purchased Boehringer Mannheim Company
T1 sequence (P15145 1-963): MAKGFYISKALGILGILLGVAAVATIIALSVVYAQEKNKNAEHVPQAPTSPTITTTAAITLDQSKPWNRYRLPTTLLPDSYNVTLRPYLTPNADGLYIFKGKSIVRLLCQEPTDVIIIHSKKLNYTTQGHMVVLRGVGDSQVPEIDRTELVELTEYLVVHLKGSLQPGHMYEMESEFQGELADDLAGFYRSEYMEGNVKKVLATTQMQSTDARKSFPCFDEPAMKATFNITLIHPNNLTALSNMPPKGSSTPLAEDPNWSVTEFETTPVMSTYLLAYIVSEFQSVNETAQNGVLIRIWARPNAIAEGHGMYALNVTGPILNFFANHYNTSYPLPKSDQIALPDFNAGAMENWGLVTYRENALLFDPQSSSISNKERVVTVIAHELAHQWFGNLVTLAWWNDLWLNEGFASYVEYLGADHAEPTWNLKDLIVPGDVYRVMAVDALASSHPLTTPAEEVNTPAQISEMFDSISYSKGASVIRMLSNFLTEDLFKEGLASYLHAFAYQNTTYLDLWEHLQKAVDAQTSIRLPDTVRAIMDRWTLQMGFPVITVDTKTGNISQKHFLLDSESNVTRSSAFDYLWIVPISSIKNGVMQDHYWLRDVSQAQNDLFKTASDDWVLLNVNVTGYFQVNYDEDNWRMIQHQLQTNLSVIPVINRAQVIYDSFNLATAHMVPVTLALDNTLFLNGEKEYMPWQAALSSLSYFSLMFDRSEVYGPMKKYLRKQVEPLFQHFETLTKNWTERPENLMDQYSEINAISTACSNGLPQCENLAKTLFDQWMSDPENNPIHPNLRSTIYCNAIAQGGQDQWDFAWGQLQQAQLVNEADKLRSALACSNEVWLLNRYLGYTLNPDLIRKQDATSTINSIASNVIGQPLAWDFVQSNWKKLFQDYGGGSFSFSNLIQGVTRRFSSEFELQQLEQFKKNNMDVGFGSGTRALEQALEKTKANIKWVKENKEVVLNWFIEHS
Experimental: The mixture solution obtained is heated at 37° C. for 3 minutes. To the heated solution is added 0.05 ml of an aqueous solution of aminopeptidase M (a product of Boehringer Mannheim Company; 4 units/mg). The resulting mixture is incubated for 30 minutes at 37° C. for the enzymatic reaction and the resultant reaction mixture is admixed with 1 ml of 1.0 M acetate buffered solution (pH 4.2) containing 10% of a surfectant "Tween" 20 and 0.1% of Fast Garnet GBC (0-aminoazotoluene, diazonium salt) to stop the enzymatic reaction. After allowing the resulting mixture to stand at ambient temperature for 15 minutes, the absorbance of light at 525 nm of the resultant reaction solution is measured, with designating the measured value as value (a). […] The rate (%) of inhibition to the aminopeptidase M is calculated from an equation [(b-a)/b]×100.

Leucine-aminopeptidase = Leucine-aminopeptidase (Homo sapiens, UniProt P28838); assay: Inhibition of leucine-aminopeptidase
Solubility in solvents = type: physicochemical; settings: water and organic solvents
mice = assay: Acute toxicity by intravenous injection in mice; type: in vivo
Aminopeptidase-B = Aminopeptidase-B (Homo sapiens, UniProt Q9H4A4); assay: Inhibition of aminopeptidase-B
[1] = test system: antibody-forming cells in spleen; assay: Humoral antibody formation: plaque-forming cells in spleen of SRBC-immunized mice (Jerne's hemolytic plaque technique); type: in vivo, CDF-mice; settings: for Number of PFC: counted 4 days after SRBC immunization; for T/C (%): PFC number versus control
Experimental: CDF-mice were immunized by intravenous injection of 10^8 sheep red blood cells (SRBC). 1000 μg/mouse, 250 μg/mouse or 62.5 μg/mouse of probestin was administered by intraperitoneal injection into the mice at the time of the immunization with SRBC (0 hour) and then totally three times, namely 24, 48 and 72 hours after the immunization. Four days after the immunization with SRBC, the number of the plaque-forming cell (PFC) (namely, the antibody-forming cells) in spleen was enumerated by the known Jerne's hemolytic plaque technique [Jerne, N.K; A. A. Nordin & C. Henry; "The agar plaque technique for recognizing antibody-producing cells in cell-bound antibodies" pp. 109-122 published by Wister Institute press, Philadelphia (1963)].

Sequence of Leucine-aminopeptidase (P28838 whole entry): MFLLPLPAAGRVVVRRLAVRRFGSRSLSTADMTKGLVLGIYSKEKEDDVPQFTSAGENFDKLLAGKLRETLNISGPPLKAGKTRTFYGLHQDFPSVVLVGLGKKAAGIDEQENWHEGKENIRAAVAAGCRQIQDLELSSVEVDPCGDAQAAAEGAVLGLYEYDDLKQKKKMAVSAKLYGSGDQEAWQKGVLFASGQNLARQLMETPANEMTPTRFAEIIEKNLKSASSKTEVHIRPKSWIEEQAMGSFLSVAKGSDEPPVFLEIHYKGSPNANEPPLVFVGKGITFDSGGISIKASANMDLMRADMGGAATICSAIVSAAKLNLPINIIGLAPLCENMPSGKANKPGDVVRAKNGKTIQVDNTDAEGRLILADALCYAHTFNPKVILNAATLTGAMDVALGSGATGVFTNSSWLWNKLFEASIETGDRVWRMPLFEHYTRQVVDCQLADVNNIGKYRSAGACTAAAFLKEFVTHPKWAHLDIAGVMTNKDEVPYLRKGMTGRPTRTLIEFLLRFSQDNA
Sequence of Aminopeptidase-A (Q07075 whole entry): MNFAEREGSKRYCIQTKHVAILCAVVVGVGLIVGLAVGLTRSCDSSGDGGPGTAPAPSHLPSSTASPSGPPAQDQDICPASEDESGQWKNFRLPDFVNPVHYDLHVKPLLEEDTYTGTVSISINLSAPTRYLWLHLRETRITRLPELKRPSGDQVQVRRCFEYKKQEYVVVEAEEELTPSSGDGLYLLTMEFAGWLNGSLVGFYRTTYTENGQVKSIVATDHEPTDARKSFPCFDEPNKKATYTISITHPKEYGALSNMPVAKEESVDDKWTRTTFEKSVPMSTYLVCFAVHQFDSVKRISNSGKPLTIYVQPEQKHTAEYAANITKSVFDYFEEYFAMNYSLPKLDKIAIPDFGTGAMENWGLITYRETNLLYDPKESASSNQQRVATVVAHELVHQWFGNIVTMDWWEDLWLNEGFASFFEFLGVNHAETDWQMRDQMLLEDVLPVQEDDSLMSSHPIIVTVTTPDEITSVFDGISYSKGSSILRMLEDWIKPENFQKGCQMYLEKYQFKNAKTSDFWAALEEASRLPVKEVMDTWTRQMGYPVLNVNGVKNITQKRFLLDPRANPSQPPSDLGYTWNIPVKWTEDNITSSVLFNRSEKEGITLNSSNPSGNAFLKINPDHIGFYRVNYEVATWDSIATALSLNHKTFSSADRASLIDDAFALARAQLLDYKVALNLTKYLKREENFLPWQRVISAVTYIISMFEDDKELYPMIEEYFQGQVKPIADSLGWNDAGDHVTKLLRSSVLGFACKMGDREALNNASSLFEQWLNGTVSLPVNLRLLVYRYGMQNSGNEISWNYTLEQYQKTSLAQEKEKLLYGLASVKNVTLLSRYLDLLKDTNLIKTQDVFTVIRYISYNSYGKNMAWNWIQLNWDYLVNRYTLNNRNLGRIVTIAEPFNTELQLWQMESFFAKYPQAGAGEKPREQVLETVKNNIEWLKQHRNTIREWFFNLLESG
Sequence of Aminopeptidase-B (Q9H4A4 whole entry): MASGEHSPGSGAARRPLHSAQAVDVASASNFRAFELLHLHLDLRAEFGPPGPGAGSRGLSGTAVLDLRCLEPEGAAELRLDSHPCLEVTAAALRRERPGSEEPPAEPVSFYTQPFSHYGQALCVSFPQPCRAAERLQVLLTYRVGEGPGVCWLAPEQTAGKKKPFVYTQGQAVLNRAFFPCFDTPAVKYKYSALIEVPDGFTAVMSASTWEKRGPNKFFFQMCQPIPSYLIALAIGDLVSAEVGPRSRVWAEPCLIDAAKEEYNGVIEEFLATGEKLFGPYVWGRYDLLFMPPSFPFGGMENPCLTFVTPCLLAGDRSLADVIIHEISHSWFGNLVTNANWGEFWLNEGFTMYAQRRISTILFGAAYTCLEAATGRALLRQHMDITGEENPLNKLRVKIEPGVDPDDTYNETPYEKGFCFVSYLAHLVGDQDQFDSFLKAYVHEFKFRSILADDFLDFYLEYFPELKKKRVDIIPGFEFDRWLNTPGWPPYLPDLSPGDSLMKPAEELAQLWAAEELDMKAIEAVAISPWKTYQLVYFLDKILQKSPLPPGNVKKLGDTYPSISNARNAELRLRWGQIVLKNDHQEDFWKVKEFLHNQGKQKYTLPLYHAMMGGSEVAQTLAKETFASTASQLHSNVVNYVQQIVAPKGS

Row | IC50 (Aminopeptidase-A) | IC50 (aminopeptidase M) | IC50 (Leucine-aminopeptidase) | SMILES | Solubility (Solubility in solvents) | Value of IC50 against Aminopeptidase-A (Aminopeptidase-A) | Value of IC50 against Leucine-aminopeptidase (Leucine-aminopeptidase) | LD50 (mice) | Value of IC50 against Aminopeptidase-B (Aminopeptidase-B) | Number of PFC ([1]; 62.5 μg/mouse ip. at 0, 24, 48, 72 h) | T/C (%) ([1]; 62.5 μg/mouse ip.) | Number of PFC ([1]; 250 μg/mouse ip. at 0, 24, 48, 72 h) | T/C (%) ([1]; 250 μg/mouse ip.) | Number of PFC ([1]; 1000 μg/mouse ip. at 0, 24, 48, 72 h) | T/C (%) ([1]; 1000 μg/mouse ip.) | Effect on number of antibody-forming cells in spleen (in words) ([1]; intraperitoneal injection, SRBC-immunized mice, probestin 1000 μg to 62.5 μg/mouse)
1 | > 259 µM | 1.04 µM | 2.59 µM | CCCCC[C@H](CC(=O)NO)C(=O)N[C@H](C(=O)N1CCC[C@H]1CO)C(C)C [Actinonin, actinonin, reference compound] |  |  |  |  |  |  |  |  |  |  |  | 
2 |  |  |  | CC(C)C[C@H](NC(=O)[C@@H](O)[C@H](N)Cc1ccccc1)C(=O)N1CCC[C@H]1C(=O)N1CCC[C@H]1C(=O)O [Probestin] | Readily soluble in water, methanol and dimethyl-sulfoxide, but insoluble in acetone, ethyl acetate, chloroform and hexane | > 100 µg/mL | 0.091 µg/mL | greater than 250 mg/kg | 36.7 µg/mL | 492.540 ± 69.980 × 10^3 /spleen | 212.1% | 631.680 ± 69.560 × 10^3 /spleen | 271.8% | 891.900 ± 162.610 × 10^3 /spleen | 384.1% | increased number of the antibody-forming cells in the spleen
